Laboratory results reported in US7635686B2, “Therapeutically useful triethyleneglycol cholesteryl oligonucleotides” (Bioniche Life Sciences, Inc., priority 2001, dated 2009).
{TEG-Chol} = cholesteryl attached through a triethylene glycol (TEG) linker

Legend:
[1] = tested on: EL-4 cells; experiment: Activation of caspase 3 in EL-4 cells (PE-antibody flow cytometry); type: cell-based, murine; details: 53 μM, 72 hrs; for Percentage of cells containing activated caspase-3: EL-4 cells, untreated 3
Protocol: EL-4 cells (2.5×10^5 cells/ml) were incubated for 72 hrs with 0 μM (control), 53 μM of SEQ ID NO:3 or 53 μM of SEQ ID NO:7. After incubation, both control and treated cells were washed, fixed, permeabilized and incubated with a Phycoerythrin (PE)-conjugated antibody that recognizes the active catalytic unit of caspase 3 (Clone: C92-605; BD Pharmingen, San Diego, Calif., USA) using the conditions recommended by the manufacturer. Fluorescence associated with active caspase 3 was analyzed by flow cytometry on a FACSCALIBUR using the program CellQUEST (both from Becton Dickinson, San Jose, Calif., USA).

[2] = tested on: EL-4 cells; experiment: Cleavage of poly(ADP-ribose) polymerase in EL-4 cells (FITC-antibody flow cytometry); type: cell-based, murine; details: 53 μM, 72 h; for Percentage of cells containing cleaved PARP: EL-4 cells, untreated 1
Protocol: EL-4 cells (2.5×10^5 cells/ml) were incubated for 72 h with 0 μM (control), 53 μM of SEQ ID NO:3 or 53 μM of SEQ ID NO:7. After incubation, both control and treated cells were washed, fixed, permeabilized and incubated with an FITC-conjugated antibody that recognizes specifically the 85 kDa fragments of cleaved PARP (BioSource, Camarillo, Calif., USA) using the conditions recommended by the manufacturer. Fluorescence associated with cleaved PARP was analyzed by flow cytometry on a FACSCalibur using the program CellQUEST (both from Becton Dickinson). The percentage of cells containing cleaved PARP in EL-4 cells treated with 53 μM final concentration of sequences is shown in Table 5.

[3] = tested on: HIG-82 cells; experiment: HIG-82 synovial cell proliferation (MTT reduction); type: cell-based, rabbit; details: 53 μM, 48 hours; for Inhibition of HIG-82 cell proliferation, inhibition (%): MTT
Method in brief: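 Adherent synovial cells at 10×10^5 cells/ml exposed 48 h to […] at 53 μM final. Proliferation measured by MTT reduction read at 570 nm and expressed as percentage inhibition.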

[4] = tested on: MDA-MB-231 (MDA-231) cells; experiment: Cellular proliferation of MDA-231 cells (Trypan blue exclusion count); type: cell-based, human; details: MDA-231, 53 μM; for Effect on cellular proliferation (in words): 72 hrs; for Percentage of changes in cellular proliferation compared to controls (mean ± s.d.): cultured for 3 days, + stimulation, − inhibition, three independent assays
Protocol: (§1) Either 20×10^3 MDA-MB-231 (MDA-231) or Hs578T cells were plated into individual wells of 24-well plates in regular culture medium (RCM) presence or absence (control) of 53 μM (final concentration) of SEQ ID NO:3, SEQ ID NO:7, 53 μM cholesteryl-TEG phosphoramidite, or corresponding control media (regular culture medium (RCM) for SEQ ID NO:3, RCM with the same amount of water as the amount added with the SEQ ID NO:7, and RCM with the same amount of acetonitrile as the amount added with cholesteryl-TEG phosphoramidite). Cells were cultured for 72 hrs, removed with trypsin and counted with an hemocytometer using the Trypan blue exclusion technique. Results of three independent assays (mean and standard deviation (s.d.) of percentage of changes compared to controls) are shown in Table 9.

[5] = tested on: Hs578T cells; experiment: Cellular proliferation of Hs578T cells (Trypan blue exclusion count); type: cell-based, human; details: 53 μM; for Effect on cellular proliferation (in words): 72 hrs; for Percentage of changes in cellular proliferation compared to controls (mean ± s.d.): cultured for 3 days, + stimulation, − inhibition, three independent assays
Protocol: as §1

[6] = tested on: MCF-7 cells; experiment: Treatment of pre-formed 3-dimensional MCF-7 structures on MATRIGEL; type: cell-based, human; details: MCF-7, 53 μM, repeated every 3-4 days up to 19-20 days, FIG. 3
Protocol: MCF-7 cells were cultured in regular culture medium (RCM), trypsinized and counted. 150×10^3 of MCF-7 cells, in wells of 24-well plates coated with 350 μl of MATRIGEL®. After the formation of 3-dimensional structures during 48 hrs without any treatment, the medium was changed and the structures were exposed to a final concentration of 53 μM of SEQ ID NO:3, 53 μM of SEQ ID NO:7, 53 μM of cholesteryl-TEG phosphoramidite, RCM or their respective control media (RCM with water, RCM with DMSO, or RCM with acetonitrile). The treatments were repeated every 3-4 days until a maximum time in culture of 19-20 days. The experiment was repeated three times. Digital photographs of the cells in the 24-well plates were taken using a Nikon Coolpix 990 digital camera connected to a Nikon inverted microscope model TMS.

[7] = tested on: Hs578T cells; experiment: Cell cycle progression in Hs578T multicellular spheroids (PI staining); type: cell-based, human; details: 53 μM, 72 hrs, FIG. 5
Protocol: Multicellular spheroids (MS) is an example of a special in vitro assay, in which tumor cells are cultured in a 3-dimensional manner to form a “tumor-like” structure. In this system, there is a reinforcement of cell-cell interactions that mimic microenvironmental conditions of malignant cells in solid tumors in vivo. In this type of assay, no extracellular matrix components are added. Cells cultured in this MS system differ from those in 2-dimensional systems (monolayer culture conditions). Some of these differences are related to structural and functional differentiation of tumor cells, changes in the cell cycle of tumor cells, “multicellular drug resistance”, and changes in the diffusion and penetration of drugs throughout layers of tumor cells (reviewed in Green et al., Anticancer Drug Des. 14:153, 1999).
About 100×10^3 Hs578T cells per spheroid were cultured in presence of 53 μM final concentration of SEQ ID NO:3, SEQ ID NO:7, 53 μM final concentration of cholesteryl-TEG phosphoramidite (cholTEG) or corresponding control media (regular culture medium (RCM), RCM with the same amount of water (RCMW) as the amount added with the SEQ ID NO:7, and RCM with the same amount of acetonitrile (RCMA) as the amount added with cholesteryl-TEG phosphoramidite). Five spheroids per each experimental condition were cultured for 72 hrs. Afterwards, cell cycle progression was evaluated by propidium iodide (PI) staining (Calbiochem, Novabiochem Corporation, San Diego, Calif.) using a FACScalibur flow cytometer (Becton Dickinson, Franklin Lakes, N.J.). Changes in the percentage of cells in the different phases of the cell cycle were analyzed using MODFIT LT software (Verity Software House Inc).

Substance | Activation of caspase-3 in EL-4 cells (in words) [1] | Percentage of cells containing activated caspase-3 [1] [%] | Cleavage of PARP in EL-4 cells (in words) [2] | Percentage of cells containing cleaved PARP [2] [%] | Inhibition of proliferation of synovial HIG-82 cells (in words) [3] | Inhibition of HIG-82 cell proliferation, inhibition (%) [3] [%] | Effect on cellular proliferation (in words) [4] | Percentage of changes in cellular proliferation compared to controls (mean ± s.d.) [4] | Effect on cellular proliferation (in words) [5] | Percentage of changes in cellular proliferation compared to controls (mean ± s.d.) [5] [%] | Effect on pre-formed 3-dimensional structures on MATRIGEL [6] | Cell cycle progression in multicellular spheroids [7]
5′ OH-CCACCC(TEG-cholesteryl) 3′ (3' {TEG-Chol}, sugars by position and backbone not given here) [SEQ ID NO:7] | capacity to induce apoptosis as measured by the activation of caspase-3 | 38 | capacity to induce apoptosis as measured by cleavage of PARP | 84 | capacity to inhibit the cellular proliferation | 53 | capacity to inhibit cellular proliferation | −97.9 ± 2.5% | capacity to inhibit cellular proliferation | −91.8 ± 10.5 | disrupted the growth pattern of the structures | increased the percentage of cells in G2M and S-phase and decrease the percentage of cells in G0/G1
5′ OH-CCACCC-OH 3′ (listed as DNA, chemistry not fully specified) [SEQ ID NO:3] | inactive | 4 | inactive | 1 | did not inhibit proliferation | 0 | did not significantly affect cellular proliferation | +6.9 ± 5% | did not significantly affect cellular proliferation | −6.5 ± 5 | did not affect the 3-dimensional structures | did not significantly modify cell cycle progression
